{
  "source": "patent EP4667476A1",
  "about": "“NOVEL MITOCHONDRIA-TARGETING COMPOUNDS” (THE CATHOLIC UNIVERSITY OF KOREA INDUSTRY-ACADEMIC …, priority 2023, dated 2024)",
  "test_system": "PD-L1",
  "assay": "PD-L1 expression in gastric cancer cells by flow cytometer",
  "assay_type": "cell-based",
  "conditions": "AGS; metformin at a concentration 50 times higher than that of JH-001 (FIG. 8)",
  "protocol": "After treating an AGS cell line, a gastric cancer cell line, with JH-001 for each concentration, the expression of PD-L1, an immunocompromised marker, was confirmed using a flow cytometer. […] In addition, metformin, known as a mitochondria-targeting drug, was treated at a concentration 50 times higher than that of JH-001 and the expression level of PD-L1 was confirmed. As a result, it was confirmed that JH-001 according to the present disclosure inhibited PD-L1 expression about 2 times higher than metformin treatment, even though JH-001 was treated at a much lower concentration (FIG. 8).",
  "data": [
    {"smiles": "CN(CCCNC(=O)CCCCC[P+](c1ccccc1)(c1ccccc1)c1ccccc1)C(=N)NC(=N)N", "note": "[JH-001, (6-((3-(3-carbamimidoyl-1-methylguanidino)propyl)amino)-6-oxohexyl)triphenylphosphonium]", "values": [
      {"measurement": "inhibition of PD-L1 expression relative to metformin treatment", "value": "about 2 times"}
    ]}
  ]
}
